In US20080242636A1, “MODIFIED CYCLODEXTRIN SULFATE-71 (TERIGYN) AS A MICROBICIDE AGENT” (priority 2007, published 2008):

Legend:
[1] = tested on: LAV-1, a laboratory strain of HIV-1; experiment: p24 antigen anti-HIV assay in pretreated PBMC and MT4 cells infected with LAV-1; type: cell-based
Method: (§1) Primary peripheral blood mononuclear cells and a MT4 cell line were pretreated with varying concentrations of terygyn before infection with LAV-1, a laboratory strain of HIV-1. As a control, a set of similar cells were not pretreated with the compound. Anti-HIV activity was measured using p24 antigen testing. Terygyn achieved total HIV inhibition (IC100) at 1 ug/ml. Cell toxicity was not observed till the concentration of terygyn was 10 ug/ml. […] Terygyn's ability to inhibit HIV at lower concentration makes it a more attractive compound for safe clinical use.

[2] = tested on: Primary peripheral blood mononuclear cells and MT4 cell line; type: cell-based
Method: as §1

[3] = rats, safety trials; cited from earlier work
HIV = conditions: as described by Tanabe Seiyaku 1991; cited from earlier work
HIV-1 R5 viruses = experiment: TZM-bL luciferase assay, R5 viruses; type: cell-based; conditions: TZM-bL cells, 48 hr at 37 C
Method: (§2) To further determine the inhibition of Terygyn of either CXCR4 or R5 viruses in cervical explants, various concentrations of Terygyn were cultured in TZM-bL cells with TCID50 HIV-1. TZM-bL are X4 positive HeLa cell clones that have been engineered to express CD4 and CCR5 and integrates a reporter gene for firefly luciferase and E coli b-galactosidase. Virus and drugs were left in culture for 48 hr at 37 C and luciferase assay determined thereafter.

HIV-1 X4 viruses = experiment: TZM-bL luciferase assay, X4 viruses; type: cell-based; conditions: TZM-bL cells, 48 hr at 37 C
Method: as §2

[4] = IC50 comparison with literature value
[5] = PBMC and MT4 pretreated, LAV-1, p24 antigen

For `O=S(=O)([O-])OC[C@@H]1O[C@@H]2O[C@H]3[C@H](OS(=O)(=O)[O-])[C@H](OCc4ccccc4)[C@@H](O[C@H]4[C@H](OS(=O)(=O)[O-])[C@H](OCc5ccccc5)[C@@H](O[C@H]5[C@H](OS(=O)(=O)[O-])[C@H](OCc6ccccc6)[C@@H](O[C@H]6[C@H](OS(=O)(=O)[O-])[C@H](OCc7ccccc7)[C@@H](O[C@H]7[C@H](OS(=O)(=O)[O-])[C@H](OCc8ccccc8)C(O[C@H]8[C@H](OS(=O)(=O)[O-])[C@H](OCc9ccccc9)C(O[C@H]1[C@H](OS(=O)(=O)[O-])[C@@H]2OCc1ccccc1)O[C@H]8COS(=O)(=O)[O-])O[C@H]7COS(=O)(=O)[O-])O[C@H]6COS(=O)(=O)[O-])O[C@H]5COS(=O)(=O)[O-])O[C@H]4COS(=O)(=O)[O-])O[C@H]3COS(=O)(=O)[O-].[Na+].[Na+].[Na+].[Na+].[Na+].[Na+].[Na+].[Na+].[Na+].[Na+].[Na+].[Na+].[Na+].[Na+]` [Terygyn, Tetradecasodium heptakis (2-0 benzyl)β-cyclodextrin tetradecasulfate], the “fold more potent than PRO 2000” value [1, 4] was “fifty-fold”, the “fold more potent than Ushercell” value [1, 4] was 100 fold and the “in vitro antiviral activity IC50” value [1, 5] was 0.5 µg/mL. The “total HIV inhibition (IC100)” value [1, 5] was 1 µg/mL, the “concentration until which cell toxicity was not observed” value [2] was 10000 ng/mL and the tolerability [3] was 125 mg/kg/day. For the same compound, the “anti-HIV activity in vitro” value (HIV) was 0.98 µg/mL, the “IC50 R5 viruses” value (HIV-1 R5 viruses) was 0.13 ± 0.05 µg/mL and the “IC50 X4 viruses” value (HIV-1 X4 viruses) was 0.88 ± 1.2 µg/mL.
